Measured values: patent US12714715B2, “Agent for treating myopia, preventing myopia and/or suppressing myopia progression” (SANTEN PHARMACEUTICAL CO., LTD., priority 2020, dated 2026)

Columns and labels:
[1] = tested on: guinea pigs; experiment: Evaluation of mydriatic action (pupil diameter, pupillary light reflex) after repeated topical administration to one eye; type: in vivo, guinea pig; conditions: guinea pig, in vivo
Method: An atropine solution was repeatedly topically administered to one eye of a guinea pig to evaluate the effect of the solution on mydriasis.
Atropine sulfate hydrate and glycerin were dissolved in water for injection to prepare 0.001%, 0.0003% and 0.0001% atropine solutions without adjusting the pH.
Each of the prepared solutions was topically administered to the left eye of guinea pigs (the left eyes of 3 guinea pigs for each solution) in a volume of 10 μL once daily for 5 days. The pupil diameter of each guinea pig was measured before the administration on day 5 as well as 1, 2 and 4 hours after the administration to observe the pupillary light reflex. The measured pupil diameters of each guinea pig at each measurement time were averaged to obtain the average value. The obtained average value was defined as the average pupil diameter. Among each average pupil diameter at each measurement time, the longest diameter was defined as the maximum pupil diameter.

[2] = tested on: guinea pig myopia model; experiment: Test on suppression of myopia progression (axial length elongation and refractive error) in guinea pig myopia model; type: in vivo, guinea pig (Slc:Hartley); conditions: for Difference of axial lengths / Difference of refraction: 10 μL topical to goggled right eye once daily 14 days, right eye − left eye, average n=6; for Difference of axial lengths / Difference of refraction / Suppression rate of axial length elongation / Suppression rate of refraction / Suppression rate of refractive error: day 14; for Suppression rate of axial length elongation / Suppression rate of refraction / Suppression rate of refractive error: vs vehicle control group
Method: According to the following procedures, the effect of AFDX0250 on the suppression of myopia progression (the axial length elongation and the refractive error) was evaluated.
AFDX0250 was dissolved in purified water with a buffering agent and a tonicity agent to prepare 0.5% AFDX0250 solution. 1 mol/L sodium hydroxide reagent solution or dilute hydrochloric acid was added to the solution to adjust the pH thereof to neutral. Also, a buffering agent and a tonicity agent were dissolved in purified water to prepare a neutral vehicle. 9.8 mL of the vehicle was mixed with 0.2 mL of 0.5% AFDX0250 solution and stirred to prepare 0.01% AFDX0250 solution. 3 mL, 4 mL and 4.5 mL of the vehicles were mixed with 2 mL, 1 mL and 0.5 mL of 0.01% AFDX0250 solutions, respectively, and stirred to prepare 0.004%, 0.002% and 0.001% AFDX0250 solutions.
A test tube with a diameter of 18 mm was cut off at the level of 10 mm from the bottom, and the cut-off bottom part was glued to one side of Velcro tape (about 20 mm square) with a hole of an appropriate diameter in the center with an adhesive agent to prepare a lens (goggle). 3-week-old guinea pigs (Slc:Hartley) (n=30) were obtained, and the prepared goggle was covered to the right eye of each guinea pig with an adhesive agent to induce myopia to the guinea pigs. The left eye thereof without goggle was used as control.
The […] group, 0.004% AFDX0250 solution administration group, […] group (control group) (n=6 per group). In the AFDX0250 solution administration groups, 10 μL of the AFDX0250 solution in each concentration was topically administered to the right eye of each guinea pig once daily for 14 days from the day when the right eye was covered with the goggle (day 0) to day 13. In the control group, 10 μL of the vehicle was topically administered to the right eye of each guinea pig once daily for 14 days from the day when the right eye was covered with the goggle (day 0) to day 13. In the all groups, 10 μL of the vehicle was topically administered to the left eye at the same frequency of administration as that of each group daily for 14 days from day 0 to day 13. The guinea pigs were reared under a normal rearing condition.
On day 14 from the myopia induction, the axial lengths of right and left eyeballs were measured with an ultrasound axial length measurement device ECHOSCAN US-500 (A-scan) (NIDEK CO., LTD.), and the refractions were measured with the auto refractometer AR-1a (NIDEK CO., LTD.). The difference of axial lengths and the suppression rate of the axial length elongation as well as the difference of refraction and the suppression rate of the refractive error were calculated according to the following formulae. The calculation was performed in Microsoft Excel. Difference of axial lengths (mm)=Axial length of right eye (mm)−Axial length of left eye (mm) Suppression rate of axial length elongation (%)=(1−Difference of axial lengths in AFDX0250 solution administration group/Difference of axial lengths in control group)×100 (Formula) Difference of refraction (D)=Refraction of right eye (D)−Refraction of left eye (D) Suppression rate of refractive error (%)=(1−Difference of refraction in AFDX0250 solution administration group/Difference of refraction in control group)×100 (Formula) (Test Result)
AFDX0250 was dissolved in purified water with a buffering agent and a tonicity agent to prepare 0.5% AFDX0250 solution. 1 mol/L sodium hydroxide reagent solution or dilute hydrochloric acid was added to the solution to adjust the pH thereof to neutral. Also, a buffering agent and a tonicity agent were dissolved in purified water to prepare a neutral vehicle. 4 mL and 4.8 mL of vehicles were mixed with 1 mL and 0.2 mL of 0.5% AFDX0250 solutions, respectively, and stirred to prepare 0.1% and 0.02% of AFDX0250 solutions. Also, 4 mL of the vehicle was mixed with 1 mL of 0.02% AFDX0250 solution and stirred to prepare 0.004% AFDX0250 solution. […]

[3] = Example 1, 0.001% solution, topical once daily 14 days
[4] = Example 1, 0.002% solution, topical once daily 14 days
[5] = Example 1, 0.004% solution, topical once daily 14 days
[6] = Example 1, 0.01% solution, topical once daily 14 days
[7] = Example 2, 0.004% solution, topical once daily 14 days
[8] = Example 2, 0.02% solution, topical once daily 14 days
[9] = Example 2, 0.1% solution, topical once daily 14 days
[10] = Example 2, 0.5% solution, topical once daily 14 days

CCN(CC)CC1CCCCN1CC(=O)N1c2ccccc2C(=O)Nc2cccnc21 (single isomer, unassigned; (+)) [AFDX0250, (+)-11-[2-[2-[(diethylamino)methyl]-1-piperidinyl]acetyl]-5,11-dihydro-6H-pyrido[2,3-b][1,4]benzodiazepin-6-one]
Mydriatic action (pupil diameter and pupillary light reflex, in words) [1]: increased the pupil diameter and decreased the pupillary light reflex
Difference of axial lengths ([2]; Example 1, 0.001% solution): 0.17 mm
Difference of refraction ([2]; Example 1, 0.001% solution): −6.12 D
Suppression rate of axial length elongation [2, 3]: 15.85%
Suppression rate of refraction [2, 3]: 22.78%
Difference of axial lengths ([2]; Example 1, 0.002% solution): 0.09 mm
Difference of refraction ([2]; Example 1, 0.002% solution): −2.78 D
Suppression rate of axial length elongation [2, 4]: 55.46%
Suppression rate of refraction [2, 4]: 64.95%
Difference of axial lengths ([2]; Example 1, 0.004% solution): 0.07 mm
Difference of refraction ([2]; Example 1, 0.004% solution): −2.39 D
Suppression rate of axial length elongation [2, 5]: 63.39%
Suppression rate of refraction [2, 5]: 69.80%
Difference of axial lengths ([2]; Example 1, 0.01% solution): 0.06 mm
Difference of refraction ([2]; Example 1, 0.01% solution): −3.63 D
Suppression rate of axial length elongation [2, 6]: 68.58%
Suppression rate of refraction [2, 6]: 54.19%
Difference of axial lengths ([2]; Example 2, 0.004% solution): 0.07 mm
Difference of refraction ([2]; Example 2, 0.004% solution): −3.25 D
Suppression rate of axial length elongation [2, 7]: 66.85%
Suppression rate of refractive error [2, 7]: 59.27%
Difference of axial lengths ([2]; Example 2, 0.02% solution): 0.05 mm
Difference of refraction ([2]; Example 2, 0.02% solution): −2.52 D
Suppression rate of axial length elongation [2, 8]: 74.16%
Suppression rate of refractive error [2, 8]: 68.43%
Difference of axial lengths ([2]; Example 2, 0.1% solution): 0.04 mm
Difference of refraction ([2]; Example 2, 0.1% solution): −2.05 D
Suppression rate of axial length elongation [2, 9]: 79.21%
Suppression rate of refractive error [2, 9]: 74.35%
Difference of axial lengths ([2]; Example 2, 0.5% solution): 0.02 mm
Difference of refraction ([2]; Example 2, 0.5% solution): −2.03 D
Suppression rate of axial length elongation [2, 10]: 88.48%
Suppression rate of refractive error [2, 10]: 74.64%
Effect on the axial length elongation and the refractive error (summary in words) ([2]; summary of Examples 1 and 2 (AFDX0250) and Comparative Examples 1 and 2 (AFDX0116), topical once daily 14 days): strongly suppressed the axial length elongation and the refractive error
